The nature of data set [1]: Single dose pharmacokinetics (PK) study in male Wister-Han rats. Format: in vivo. To be noted: rat; for clearance / half-life / AUC(0-t) / Vd / Cmax: male, Wister-Han, plasma; for Vd: read-out: Vss; for F: dose normalized AUC0-last after IV and PO dose. On the procedure: Pharmacokinetic properties of selected compounds were assessed by single dose PK studies in Male Wister-Han Rats (vendor: Beijing Vital River Laboratory Animal Technology Co., Ltd). Briefly, two groups of animals were administered a single dose of respective compound intravenously (IV, bolus) at 2 mg/kg or orally (PO, by gavage) at 10 mg/kg. Blood samples (approximately 150 μL) were collected via Jugular vein at 5 min (only for IV), 15 min, 30 min, 1 h, 2 h, 4 h, 7 h and 24 h post-dose. Blood samples were placed into tubes containing EDTA-K2 anticoagulant and centrifuged at 3000 rpm for 15 min at 4° C. to separate plasma from the samples. After centrifugation, the resulting plasma was transferred to clean tubes for bioanalysis with LC/MS/MS. The pharmacokinetic parameters were calculated using non-compartmental analysis. The volume of distribution (Vss), half-life (T1/2) and clearance (CL) were obtained based on the plasma concentration-time curve after IV dose. The peak concentration (Cmax) was recorded directly from experimental observations after PO dose. The area under the plasma concentration-time curve (AUC0-last) was calculated using the linear trapezoidal rule up to the last detectable concentration. The bioavailability (F) was calculated based on the dose normalized AUC0-last after IV and PO dose.
The Vss of a drug represents the degree to which a drug is distributed in body tissue rather than the plasma. Vss is directly proportional with the amount of drug distributed into tissue. A higher Vss indicates a greater amount of tissue distribution.

The test system of data set [2] is embryonic stem cells (D3) and 3T3 fibroblasts. The data set can be described thus: mouse Embryonic Stem Cell Test (mEST). In kind it is cell-based. Particulars: <0.5 negative, >0.6 positive. The source says:
The in vitro mouse Embryonic Stem Cell Test (mEST) assay is an implemented routine assay at Roche. The original EST was developed by Horst Spielmann and his group in 1997 as an in vitro model for the screening of embryotoxicity, based on a blastocyst-derived permanent embryonic mouse ESC (mESC) D3 cell line derived from mouse 129 strains and was validated by European Centre for the Validation of Alternative Methods (ECVAM).
We further optimized and modified the approach allowing for the application of the assay to pharmaceutical compounds.
The cytotoxicity (inhibition of growth) of 3T3 fibroblasts, which represents differentiated cells and the cytotoxicity of undifferentiated embryonic stem cells (D3) after 10 days of substance treatment serve as two assay endpoints. This is determined by the use of dehydrogenase enzymes, which are present in the intact mitochondria of living cells to convert yellow soluble substrate 3-(4,5-dimethythiazol-2-yl)-2,5-diphenyl tetrazolium bromide (MTT) into a dark blue insoluble formazan product, which gets sequestered within the cells and is detected quantitatively using an absorbance reader (570 nm) after solubilizing the cell membrane.
The third endpoint is the inhibition of differentiation of ES cells into myocards which are cardiac muscle cells after 10 days of treatment. The beating of this cells is evaluated by microscopy. […]

Setting [3] is: IV 2 mg/kg, read-out: IV AUC0-last.
Setting [4] is: PO 10 mg/kg, read-out: PO AUC0-last.

What is called clearance is a measure of how efficiently the substance is removed, as volume per time. In general, half-life refers to how long it takes for the measured level to halve. In general, Cmax refers to the highest concentration seen after dosing.

Structures are written as SMILES. Read-outs that look alike come from different tables or passages of the source.

As to `Cc1cc(N2CCC(c3ncc(N4CCNCC4)cc3C)CC2)c2cnn(C)c2n1` [Example 7, 1,6-dimethyl-4-[4-(3-methyl-5-piperazin-1-yl-2-pyridyl)-1-piperidyl]pyrazolo[3,4-b]pyridine], in data set [1] (IV 2 mg/kg), the clearance is 16 mL/min/kg, the half-life is 14.7 h and the Vd was 16.8 L/kg. For the same molecule, the AUC(0-t) in data set [1] (setting [3]) came out at 1520 ng·h/mL. In data set [1] (PO 10 mg/kg), this molecule returned a peak concentration (Cmax) of 465 ng/mL. The AUC(0-t) in data set [1] (setting [4]) is 7510 ng·h/mL. Besides, in data set [1], the F was found to be 100%.
For `CO[C@@H]1CN(c2cnc([C@@H]3CCN(c4cc(C)nc5c4cnn5C)C[C@H]3C)c(C)c2)C[C@H]1N` [Example 26, (3R,4R)-1-[6-[(3S,4R)-1-(1,6-dimethylpyrazolo[3,4-b]pyridin-4-yl)-3-methyl-4-piperidyl]-5-methyl-3-pyridyl]-4-methoxy-pyrrolidin-3-amine], in data set [1] (IV 2 mg/kg), the clearance amounted to 10.3 mL/min/kg, the half-life was 15.7 h and the Vd was determined as 12.5 L/kg. In addition, the AUC(0-t) in data set [1] (setting [3]) stood at 2200 ng·h/mL. In addition, the Cmax in data set [1] (PO 10 mg/kg) was found to be 620 ng/mL. Also, the AUC(0-t) in data set [1] (setting [4]) stood at 9260 ng·h/mL. This molecule also displayed a F in data set [1] of 84.3%.
Turning to `Cc1cc(N2CC[C@@H](c3ncc(N4CCOC[C@@H](N)C4)cc3C)[C@H](C)C2)c2cnn(C)c2n1` [Example 28, (6S)-4-[6-[(3S,4R)-1-(1,6-dimethylpyrazolo[3,4-b]pyridin-4-yl)-3-methyl-4-piperidyl]-5-methyl-3-pyridyl]-1,4-oxazepan-6-amine], the “Predictive scores D12_3” value in data set [2] was 0.44. In data set [1] (IV 2 mg/kg), the clearance came out at 30.2 mL/min/kg, the half-life was 8.84 h and the Vd stood at 16.7 L/kg. In addition, the AUC(0-t) in data set [1] (setting [3]) was 974 ng·h/mL. Further, the Cmax in data set [1] (PO 10 mg/kg) came to 122 ng/mL. For the same molecule, in data set [1] (setting [4]), the AUC(0-t) is 1800 ng·h/mL. Besides, the F in data set [1] worked out at 37%.
For the molecule `Cc1cc(N2CC[C@H](c3ccc(N4CCOC[C@@H](N)C4)cn3)[C@@H](C)C2)c2cnn(C)c2n1` [Example 40, (6S)-4-[6-[(3R,4S)-1-(1,6-dimethylpyrazolo[3,4-b]pyridin-4-yl)-3-methyl-4-piperidyl]-3-pyridyl]-1,4-oxazepan-6-amine], in data set [2], the “Predictive scores D12_3” value is reported as 0.36. In addition, in data set [1] (IV 2 mg/kg), the clearance came out at 32.8 mL/min/kg, the half-life was 7.26 h and the Vd turned out to be 13.2 L/kg. Moreover, the AUC(0-t) in data set [1] (setting [3]) worked out at 1060 ng·h/mL. Also, the peak level in data set [1] (PO 10 mg/kg) (Cmax) was 216 ng/mL. Moreover, the AUC(0-t) in data set [1] (setting [4]) was found to be 2840 ng·h/mL. Moreover, the F in data set [1] came out at 53.4%.
